Measurements: ChEMBL document CHEMBL2074316, “Multidrug resistance protein-mediated transport of chlorambucil and melphalan conjugated to glutathione” (Br J Cancer, 1998)

Molecular target: Multidrug resistance-associated protein 1 (Homo sapiens, UniProt P33527)
Experiment: TP_TRANSPORTER: uptake in membrane vesicle from MRP1-expressing HeLa cells
Assay type: functional, cell membranes

Sequence of Multidrug resistance-associated protein 1 (P33527 whole entry): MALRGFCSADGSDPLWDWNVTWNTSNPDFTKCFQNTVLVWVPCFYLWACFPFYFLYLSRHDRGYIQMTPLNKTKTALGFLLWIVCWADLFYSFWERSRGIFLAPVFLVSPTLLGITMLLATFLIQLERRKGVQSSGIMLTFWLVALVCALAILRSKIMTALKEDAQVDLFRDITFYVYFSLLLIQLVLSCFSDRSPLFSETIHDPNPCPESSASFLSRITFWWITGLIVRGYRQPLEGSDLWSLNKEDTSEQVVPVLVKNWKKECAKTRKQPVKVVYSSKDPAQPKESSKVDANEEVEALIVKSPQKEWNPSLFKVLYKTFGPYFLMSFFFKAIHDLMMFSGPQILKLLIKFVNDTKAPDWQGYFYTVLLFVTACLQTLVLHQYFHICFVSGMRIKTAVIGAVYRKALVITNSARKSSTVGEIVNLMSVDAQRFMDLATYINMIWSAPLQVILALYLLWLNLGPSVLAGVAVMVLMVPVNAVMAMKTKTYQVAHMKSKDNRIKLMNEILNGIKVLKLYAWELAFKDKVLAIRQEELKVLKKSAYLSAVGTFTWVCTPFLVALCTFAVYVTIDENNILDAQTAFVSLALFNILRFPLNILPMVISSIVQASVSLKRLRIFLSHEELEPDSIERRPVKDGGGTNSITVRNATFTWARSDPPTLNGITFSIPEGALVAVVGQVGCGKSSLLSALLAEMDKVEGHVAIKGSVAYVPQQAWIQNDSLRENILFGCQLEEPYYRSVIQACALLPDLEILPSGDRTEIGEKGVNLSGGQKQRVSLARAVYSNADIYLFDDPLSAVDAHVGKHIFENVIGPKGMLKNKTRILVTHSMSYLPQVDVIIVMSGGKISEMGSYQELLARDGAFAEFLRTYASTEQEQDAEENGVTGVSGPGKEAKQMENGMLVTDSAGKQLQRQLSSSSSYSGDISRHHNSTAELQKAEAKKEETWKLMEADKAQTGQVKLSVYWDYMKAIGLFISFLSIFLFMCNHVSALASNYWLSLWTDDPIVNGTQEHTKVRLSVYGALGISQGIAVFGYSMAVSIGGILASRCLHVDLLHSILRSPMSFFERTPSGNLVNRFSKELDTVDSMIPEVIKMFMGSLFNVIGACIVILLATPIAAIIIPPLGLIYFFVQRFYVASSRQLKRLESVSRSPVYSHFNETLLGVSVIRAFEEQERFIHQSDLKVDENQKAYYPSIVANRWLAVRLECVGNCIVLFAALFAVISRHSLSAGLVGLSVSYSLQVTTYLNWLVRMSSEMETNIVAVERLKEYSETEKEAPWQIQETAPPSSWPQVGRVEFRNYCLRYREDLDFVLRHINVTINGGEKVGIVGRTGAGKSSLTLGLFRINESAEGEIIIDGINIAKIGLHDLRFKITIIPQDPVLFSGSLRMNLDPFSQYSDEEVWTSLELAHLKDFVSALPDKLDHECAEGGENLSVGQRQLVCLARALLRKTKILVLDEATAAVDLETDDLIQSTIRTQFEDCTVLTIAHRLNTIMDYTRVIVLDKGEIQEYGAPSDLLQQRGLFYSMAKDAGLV

| Activity | Compound |
| --- | --- |
| substrate [+] | NC(CCC(=O)NC(CSCCN(CCO)c1ccc(CCCC(=O)O)cc1)C(=O)NCC(=O)O)C(=O)O (configuration not stated) [MONOHYDROXY MONOGLUTATHIONYL CHLORAMBUCIL] |
| substrate [+] | C=C(NCC(=O)O)[C@H](CSCCN(CCSC[C@H](NC(=O)CC[C@H](N)C(=O)O)C(=O)NCC(=O)O)c1ccc(CCCC(=O)O)cc1)NC(=O)CC[C@H](N)C(=O)O [BISGLUTATHIONYL CHLORAMBUCIL] |
